Reference: BindingDB's records for doi:10.1021/bi200655g (Glaxosmithkline, 2011)

Biological target: T1, Peptide deformylase (Streptococcus pneumoniae (strain ATCC BAA-255 / R6), UniProt Q8DP79)
T1 sequence (Q8DP79 whole entry): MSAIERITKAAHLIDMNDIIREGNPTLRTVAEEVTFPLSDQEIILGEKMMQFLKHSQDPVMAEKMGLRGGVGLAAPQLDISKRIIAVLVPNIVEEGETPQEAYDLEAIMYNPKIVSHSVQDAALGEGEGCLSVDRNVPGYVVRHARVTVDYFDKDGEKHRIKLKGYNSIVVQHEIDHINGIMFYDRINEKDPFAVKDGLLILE
Test: Binding Assay
Source text: Binding assay using PDF inhibitors.

| SMILES | Ki |
| --- | --- |
| CCCCC[C@H](CN(O)C=O)C(=O)NNc1nccc(C(F)(F)F)n1 [PDF inhibitor, compound 1] | 6310 nM |
| Cc1ccccc1Nc1nc(N2CCN(c3ccccc3Cl)CC2)nc(N2CSC[C@H]2C(=O)NCC(=O)NO)n1 [PDF inhibitor, compound 7] | 650 nM |

The remaining compounds from weak to strong by Ki, led by results:

| Ki | SMILES |
| --- | --- |
| 25900 nM | O=CC(O)CCNC(=O)c1cccc(Cl)c1Cl (stereo unspecified) [PDF inhibitor, compound 4] |
| 334 nM | CNC(=O)c1cccc(C)c1Nc1nc(N2CCN(c3ccccc3Cl)CC2)nc(N2CSC[C@H]2C(=O)NCC(=O)NO)n1 [PDF inhibitor, compound 2] |
| 213 nM | CNC(=O)c1cccc(C)c1Nc1nc(N2CCN(c3ccccc3Cl)CC2)nc(N2CSC[C@H]2COCC(=O)NO)n1 [PDF inhibitor, compound 6] |
| 53.7 nM | Cc1ccccc1Nc1nc(N2CCN(c3ccccc3Cl)CC2)nc(N2CSC[C@H]2COCC(=O)NO)n1 [PDF inhibitor, compound 8] |
